# Counter-ions that a name gives are not always drawn.
# Legend:
# GPIIb-IIIa = target: T1, GPIIb-IIIa (Homo sapiens, UniProt P05106+P08514); test: ELISA IIb-IIIa assay (fibrinogen binding to immobilized GPIIb-IIIa); details: inhibition of biotinylated fibrinogen binding to plate-coated purified platelet GPIIb-IIIa receptor
# T1 construct: Purified platelet GPIIb-IIIa receptor was prepared as described by Fitzgerald; from tissue; host or cells: platelets
# Experimental: No. 1—The ELISA IIb-IIIa Assay:
# In the following assay, GPIIb-IIIa is prepared in purified form, by a method such as described by Fitzgerald, L. A., et al., Anal Biochem (1985) 151:169-177, (the disclosure of which is incorporated herein by reference). GPIIb-IIIa is coated onto microtiter plates. The coated support is then contacted with fibrinogen and with the test material (e.g., compounds of Formula I) and incubated for a sufficient time to permit maximal binding of fibrinogen to the immobilized GPIIb-IIIa. Fibrinogen is typically provided at a concentration of about 5-50 nM and the test material can, if desired, be added at a series of dilution. Typical incubations are 2 to 4 hours at 25° C., the time and temperature being interdependent.
# After incubation, the solution containing the fibrinogen and test material is removed and the level of binding of fibrinogen measured by quantitating bound fibrinogen to GPIIb-IIIa. Any suitable means of detection may be used, but it is convenient to employ labeled fibrinogen, for example using biotinylated labels. Such methods are well known in the art.
# A. Description of Assays—Plate Assays
# Purified platelet GPIIb-IIIa receptor was prepared as described by Fitzgerald, L. A., et al., Anal Biochem (1985) 151:169-177 (1985). Vitronectin receptor was prepared as described by Smith, J. W., J. Biol Chem (1988) 263:18726-18731. After purification, the receptors were stored in 0.1% Triton X-100 at 0.1-1.0 mg/ml.
# The receptors were coated to the wells of 96-well flat-bottom ELISA plates (Linbro EIA-Plus microtiter plate, Flow Laboratories) after diluting 1:200 with a solution of 20 mM Tris-HCl, 150 mM NaCl, 1 mM CaCl2, pH 7.4, to reduce the Triton X-100 concentration to below its critical micellar concentration and adding an aliquot of 100 ul to each well. The wells were all allowed to incubate overnight at 4° C., and then aspirated to dryness. Additional sites were blocked by the addition of bovine serum albumin (BSA) at 35 mg/ml in the above buffer for two hours at 30° C. to prevent nonspecific binding. The wells were then washed once with binding buffer ([…] Tris-HCl, 100 mM NaCl 2 mM CaCl2, 1 mg/ml BSA).
# The corresponding ligands (fibrinogen, von Willebrand Factor, or vitronectin) were conjugated to biotin using commercially available reagents and standard protocols. The labeled ligands were added to the receptor-coated wells at final concentration of 10 nM (100 ul/well) and incubated for 3 hours at 25° C. in the presence or absence of the test samples. After incubation, the wells are aspirated to dryness and bound ligand is quantitated.
# The bound protein is detected by the addition of antibiotin antibody conjugated to alkaline phosphatase followed by addition of substrate (p-nitrophenyl phosphate), and determination of the optical density of each well at […]. Decreased color development is observed in wells incubated with test samples which inhibit binding of ligand to receptor.
# [1] = tested on: human platelet-rich plasma; test: Platelet aggregation assay, Aggregation-Human PRP/ADP; type: cell-based; details: inhibition of ADP-induced aggregation of human platelet-rich plasma
# Experimental: No. 2—The Platelet Aggregation Assay
# In addition to the ELISA IIb-IIIa assay previously described the Aggregation-Human PRP/ADP Assay is useful for evaluating therapeutic compounds.
# Platelet-rich plasma was prepared from healthy human volunteers for use in determining inhibition of platelet aggregation by the compounds. Blood was collected via a 21-gauge butterfly cannula, using a two-syringe technique into 1/10 volume of 3.8% trisodium citrate.
# Platelet-rich plasma was prepared at room temperature by centrifugation of the citrated whole blood at 100×g for twelve minutes. The platelet rich plasma contained approximately 200-400,000 platelets/μl.
# Platelet-poor plasma was prepared by centrifugation of citrated whole blood at 12,000×g for 2 minutes.
# Platelet aggregation was assayed in a 4-channel platelet aggregatiob profiler (PAP-4, Biodata, Hatboro, Pa.) according to the manufacturers directions. Inhibition of platelet aggregation was studied by adding varying amounts of adenosine diphosphate (ADP) to stirred human platelet-rich plasma. Specifically, the human platelet-rich plasma was incubated with the compound being tested for 1 minute at 37° C. prior to the addition of a variety of aggregating agents most often ADP 5 μM, but also 1 μg/ml collagen, 1 μM U46619 and 0.3 μM platelet activating factor.
# T1 sequence (P08514 32-887 limits assumed): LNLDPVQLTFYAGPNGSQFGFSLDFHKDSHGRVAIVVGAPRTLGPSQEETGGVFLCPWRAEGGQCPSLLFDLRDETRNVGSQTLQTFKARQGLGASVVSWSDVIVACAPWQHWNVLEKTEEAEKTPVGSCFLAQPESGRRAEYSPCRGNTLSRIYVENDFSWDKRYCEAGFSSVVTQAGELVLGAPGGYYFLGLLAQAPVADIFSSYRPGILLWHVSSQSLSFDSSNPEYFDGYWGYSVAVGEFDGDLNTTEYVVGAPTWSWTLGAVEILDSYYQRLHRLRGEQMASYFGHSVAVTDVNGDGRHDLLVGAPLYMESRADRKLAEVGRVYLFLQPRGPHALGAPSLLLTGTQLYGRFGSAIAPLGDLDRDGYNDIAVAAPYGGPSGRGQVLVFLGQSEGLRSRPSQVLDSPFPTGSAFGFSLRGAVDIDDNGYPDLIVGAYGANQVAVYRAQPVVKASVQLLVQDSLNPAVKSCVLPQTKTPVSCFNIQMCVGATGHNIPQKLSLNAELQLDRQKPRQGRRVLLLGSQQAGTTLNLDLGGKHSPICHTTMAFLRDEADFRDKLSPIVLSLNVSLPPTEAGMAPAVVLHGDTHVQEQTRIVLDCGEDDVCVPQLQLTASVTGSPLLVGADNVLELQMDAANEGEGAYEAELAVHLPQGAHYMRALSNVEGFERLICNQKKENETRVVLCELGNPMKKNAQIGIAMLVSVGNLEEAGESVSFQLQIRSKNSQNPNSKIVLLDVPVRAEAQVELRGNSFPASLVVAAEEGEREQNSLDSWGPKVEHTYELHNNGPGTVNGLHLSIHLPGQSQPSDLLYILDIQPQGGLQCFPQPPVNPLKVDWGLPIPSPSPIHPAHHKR
# T1 sequence (P08514 891-1039 limits assumed): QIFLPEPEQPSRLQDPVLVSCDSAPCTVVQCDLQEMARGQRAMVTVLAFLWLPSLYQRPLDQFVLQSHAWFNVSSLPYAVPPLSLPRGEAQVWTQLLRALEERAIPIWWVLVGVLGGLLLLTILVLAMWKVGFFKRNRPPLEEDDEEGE
# T1 sequence (P05106 27-788): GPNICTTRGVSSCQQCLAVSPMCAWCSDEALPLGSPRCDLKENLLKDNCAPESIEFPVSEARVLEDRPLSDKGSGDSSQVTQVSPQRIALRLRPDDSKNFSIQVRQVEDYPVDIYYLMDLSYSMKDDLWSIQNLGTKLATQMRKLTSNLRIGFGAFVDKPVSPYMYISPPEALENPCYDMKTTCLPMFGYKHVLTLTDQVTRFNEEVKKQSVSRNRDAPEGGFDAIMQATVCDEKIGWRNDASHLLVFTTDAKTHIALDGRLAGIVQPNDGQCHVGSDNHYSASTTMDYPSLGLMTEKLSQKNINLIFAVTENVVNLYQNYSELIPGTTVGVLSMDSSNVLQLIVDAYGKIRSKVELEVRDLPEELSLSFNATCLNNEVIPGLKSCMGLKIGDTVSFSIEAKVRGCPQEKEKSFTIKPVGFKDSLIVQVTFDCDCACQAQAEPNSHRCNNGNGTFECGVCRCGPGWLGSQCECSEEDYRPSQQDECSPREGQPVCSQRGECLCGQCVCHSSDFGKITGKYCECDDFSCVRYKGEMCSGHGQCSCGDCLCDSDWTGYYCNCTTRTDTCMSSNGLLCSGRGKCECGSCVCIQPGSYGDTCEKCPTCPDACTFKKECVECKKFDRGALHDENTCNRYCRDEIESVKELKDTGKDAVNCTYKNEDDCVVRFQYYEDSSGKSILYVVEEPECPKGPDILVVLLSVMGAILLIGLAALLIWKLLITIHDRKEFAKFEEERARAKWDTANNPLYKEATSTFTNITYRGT
Compound,IC50 (GPIIb-IIIa),IC50 [1],melting point
"CCOC(=O)CC1CCC2(CC1)CCN(C(=O)c1ccc(C(=N)N)cc1)CC2 [Example 1, Ethyl (3-(4-(Aminoiminomethyl)benzoyl)-3-aza-spiro[5.5]undec-9-yl)acetate Hydrochloride]",> 10 µM,100 µM,–
"N=C(N)c1ccc(C(=O)N2CCC3(CCC(CC(=O)O)CC3)CC2)cc1 [Example 2, (3-(4-(Aminoiminomethyl)benzoyl)-3-aza-spiro[5.5]undec-9-yl)acetic Acid Hydrochloride]",0.0082 µM,0.41 µM,–
"N=C(N)c1ccc(N2CC3(CCN(CCCC(=O)O)CC3)OC2=O)cc1 [Example 4, 4-(3-(4-(Aminoiminomethyl)phenyl)-2-oxo-1-oxa-3,8-diaza-5 spiro[4.5]dec-8-yl)butanoic Acid Bistrifluoroacetate]",–,3 µM,–
N=C(N)c1ccc(C2=NOC3(CCN(CC(=O)O)CC3)C2)cc1 [Example 6],–,4 µM,–
"CCOC(=O)CCCN1CCC2(CC1)CC(c1ccc(C(=N)N)cc1)=NO2 [Example 7, Hydrochloride]",–,2.8 µM,–
N=C(N)c1ccc(C2=NOC3(CCN(CCCC(=O)O)CC3)C2)cc1 [Example 8],–,0.32 µM,–
N=C(N)c1ccc(C2=NOC3(CCN(C(=O)CCC(=O)O)CC3)C2)cc1 [Example 10],–,1 µM,–
"N=C(N)c1ccc(C(=O)N2CCC3(CC2)CN(CCCC(=O)O)C(=O)CO3)cc1 [Example 12, Hydrochloride]",–,> 10 µM,–
"N=C(N)c1ccc(C(=O)N2CCC3(CC2)C(=O)N(CC(=O)O)C(=O)N3Cc2ccccc2)cc1 [Example 13, Trifluoroacetate]",–,> 100 µM,–
"CCOC(=O)CCN1CCC2(CC1)CC(c1ccc(C(=N)N)cc1)=NO2 [Example 14, Hydrochloride]",–,0.64 µM,–
"N=C(N)c1ccc(C2=NOC3(CCN(CCC(=O)O)CC3)C2)cc1 [Example 15, 4-(3-(4-(Aminoiminomethyl)phenyl)-1-oxa-2,8-diaza-spiro[4.5]dec-2-en-8-yl)propanoic Acid]",–,0.11 µM,–
"CCOC(=O)CCCC(=O)N1CCC2(CC1)CC(c1ccc(C(=N)N)cc1)=NO2 [Example 16, Ethyl 5-(3-(4-(Aminoiminomethyl)phenyl)-1-oxa-2,8-diaza-spiro[4.]dec-2-en-8-yl)-5-oxopentanoate Hydrochloride]",–,0.2 µM,–
N=C(N)c1ccc(C2=NOC3(CCN(C(=O)CCCC(=O)O)CC3)C2)cc1 [Example 17],–,0.084 µM,–
N=C(N)c1ccc(C2=NOC3(CCN(CCCCC(=O)O)CC3)C2)cc1 [Example 19],–,0.45 µM,–
"O=C(O)CN1CCC2(CCN(CCc3ccncc3)CC2)CC1 [Example 20, (9-(2-(Pyridin-4-yl)ethyl)-3,9-diazaspiro[5.5]undec-3-yl)acetic Acid Bistrifluoroacetate]",–,> 100 µM,–
"N=C(N)c1ccc(C(=O)N2CCC3(CC2)NC(=O)N(CCCC(=O)O)C3=O)cc1 [Example 21, Trifluoroacetate]",–,> 10 µM,–
"CCOC(=O)CC1CCC2(CC1)CCN(CCc1ccncc1)CC2 [Example 22, Ethyl (3-(2-(Pyridin-4-yl)ethyl)-3-azaspiro[5.5]undec-9-yl)acetate]",–,> 100 µM,–

Compound,IC50 (GPIIb-IIIa),IC50 [1],melting point
"O=C(O)CC1CCC2(CC1)CCN(CCc1ccncc1)CC2 [Example 23, (3-(2-(Pyridin-4-yl)ethyl)-3-azaspiro[5.5]undec-9-yl)acetic Acid]",–,> 100 µM,–
"CCOC(=O)CC1CCC2(CC1)CCN(CCC1CCNCC1)CC2 [Example 24, Ethyl (3-(2-(Piperidin-4-yl)ethyl)-3-azaspiro[5.5]undec-9-yl)acetate]",–,> 100 µM,–
"O=C(O)CC1CCC2(CC1)CCN(CCC1CCNCC1)CC2 [Example 25, (3-(2-(Piperidin-4-yl)ethyl)-3-azaspiro[5.5]undec-9-yl)acetic Acid]",–,> 10 µM,–
"O=C(O)CN1C(=O)CC2(CCN(CCc3ccncc3)CC2)CC1=O [Example 26, (9-(2-(Pyridin-4-yl)ethyl)-2,4-dioxo-3,9-diazaspiro[5.5]undec-3-yl)acetic Acid Trifluoroacetate]",–,> 100 µM,–
"O=C(O)CN1CCC2(CCN(CCC3CCNCC3)CC2)CC1 [Example 27, (9-(2-(Piperidin-4-yl)ethyl)-3,9-diazaspiro[5.5]undec-3-yl)acetic Acid Tristrifluoroacetate]",–,100 µM,–
"N=C(N)c1ccc(C(=O)N2CCC3(CC2)CN(CC(=O)O)C(=O)O3)cc1 [Example 30, (8-(4-(Aminoiminomethyl)benzoyl)-2-oxo-1-oxa-3,8-diaza-spiro[4.5]dec-3-yl)acetic Acid]",29 µM,80 µM,157 to 159 °C
"N=C(N)c1ccc(CC(=O)N2CCC3(CC2)CN(CC(=O)O)C(=O)O3)cc1 [Example 31, (8-(2-(4-Aminoiminomethyl)acetyl)-2-oxo-1-oxa-3,8-diaza-spiro[4.5]dec-3-yl)acetic Acid.]",0.074 µM,1.11 µM,–
N=C(N)c1ccc(CC(=O)N2CCC3(CC2)CCN(CC(=O)O)C(=O)O3)cc1 [Example 32],0.2 µM,2.13 µM,–
"N=C(N)c1ccc(C(=O)N2CCC3(CCN(CC(=O)O)C(=O)O3)CC2)cc1 [Example 33, (9-(4-(Aminoiminomethyl)benzoyl)-2-oxo-1-oxa-3,9-diaza-spiro[5.5]undec-3-yl)acetic Acid]",16.5 µM,66 µM,–
"N=C(N)c1ccc(COC2CCC3(CC2)CN(CC(=O)O)C(=O)O3)cc1 (stereo not drawn) [Example 34, (8-(4-(Aminoiminomethyl)benzyloxy)-2-oxo-1-oxa-3-aza-spiro[4.5]dec-3-yl)acetic Acid]",0.35 µM,1.29 µM,–
"N=C(N)c1ccc(CC(=O)NC2CCC3(CC2)CN(CC(=O)O)C(=O)O3)cc1 (stereo not drawn) [Example 35, (8-(2-(4-(Aminoiminomethyl)phenyl)acetamido)-2-oxo-1-oxa-3-aza-spiro[4.5]dec-3-yl)acetic Acid]",0.19 µM,0.77 µM,193 to 196 °C
"N=C(N)c1ccc(C(=O)NC2CCC3(CC2)CN(CC(=O)O)C(=O)O3)cc1 (stereo not drawn) [Example 36, (8-(4-(Aminoiminomethyl)benzamido)-2-oxo-1-oxa-3-aza-spiro[4.5]dec-3-yl)acetic Acid]",0.17 µM,0.51 µM,280 to 284 °C
N=C(N)NCCCC(=O)N1CCC2(CC1)CN(CC(=O)O)C(=O)O2 [Example 37],19 µM,52 µM,–
N=C(N)NCCCCC(=O)N1CCC2(CC1)CN(CC(=O)O)C(=O)O2 [Example 38],1.85 µM,7 µM,–
N=C(N)NCCCCCC(=O)N1CCC2(CC1)CN(CC(=O)O)C(=O)O2 [Example 39],2.7 µM,12 µM,–
"N=C(N)c1ccc(C(=O)N2CCC3(CCN(C(=O)CCC(=O)O)CC3)CC2)cc1 [Example 41, 4-((3-(4-Aminoiminomethyl)benzoyl)-3,9-diaza-spiro[5.5]undec-9-25 yl)-4-oxobutanoic Acid]",15 µM,14 µM,–
"N=C(N)c1ccc(C(=O)N2CCC3(CCN(C(=O)CCCC(=O)O)CC3)CC2)cc1 [Example 42, 5-((3-(4-Aminoiminomethyl)benzoyl)-3,9-diaza-spiro[5.5]undec-9-yl)-5-oxopentanoic Acid]",3.5 µM,10 µM,–

# — patent US6528534B2 (Millennium Pharmaceuticals, Inc., priority 1995, dated 2003)
